Like-named read-outs stand apart in the source and are kept apart here.
Legend:
NMDA receptor [1] = conditions: reference antagonists, general statement; cited from earlier work
[2] = molecular target: glycine receptor of the NMDA receptor complex; test: [3H]-glycine binding assay (Test A); design: species or system rat (Sprague-Dawley); conditions: [3H]-glycine 20 nM, rat cortex/hippocampus membranes, pH 7.1, 30 min, 4° C.
From the text: (§1) The actions of compounds according to the invention as antagonists at the glycine receptor of the NMDA receptor complex can be shown by one or more standard tests such as the [^3 H]-glycine binding assay (Test A), by functional assays in vitro such as tests for measuring glutamate-evoked contractions of the guinea pig ileum (Test B) and/or tests for measuring antagonism of NMDA-induced evoked response in hippocampal slices (Test C), and by tests in vivo such as ischemia induced by carotid occlusion in the gerbil model (Test D).
In the [^3 H]-glycine binding assay, neuronal synaptic membranes are prepared from adult (about 250 g) male Sprague-Dawley rats. Freshly dissected cortices and hippocampi are homogenized in 0.32M sucrose (110 mg/mL). Synaptosomes are isolated by centrifugation (1000 xg, 10 min), the supernatant is pelleted (20,000 xg, 20 min) and resuspended in double-distilled water. The suspension was centrifuged for 20 minutes at 8,000 xg. The resulting […] and bully coat are washed twice (48,000 xg, 10 mins, resuspension in double-deionized water). The final pellet is quickly frozen (dry ice/ethanol bath) under double-deionized water and stored at -70° C.
On the day of the experiment, thawed synaptic membranes are homogenized with a Brinkmann Polytron (tm, Brinkmann Instruments, Westbury, N.Y.) tissue homogenizer in 50 millimolar tris(hydroxymethyl)aminomethane citrate, pH 7.1. The membranes are incubated with 0.04% Sufact-AMPS X100 (tm, Pierce, Rockford, Ill.) in buffer for 20 minutes at 37° C. and washed six times by centrifugation (48,000 xg, 10 min) and resuspended in buffer. The final pellet is homogenized at 200 mg wet weight/mL of the buffer for the binding assay.
For [^3 H]-glycine binding at the N-methyl-D-aspartate receptor, 20 nanomolar [^3 H]-glycine (40-60 Ci/mmol, New England Nuclear, Boston, Mass.) is incubated with the membranes suspended in 50 millimolar tris (hydroxymethyl)aminomethane citrate, pH 7.1 for 30 minutes at 4° C. […] Radioactivity is estimated by liquid scintillation counting. […]

[3] = molecular target: glycine receptor of the NMDA receptor complex (Cavia porcellus, UniProt A0A286XML8); test: glutamate-evoked contractions of the guinea pig ileum (Test B); type: cell-based; conditions: 100 micromolar glutamate-evoked contractions, compound 5 min before glutamate
From the text: as §1
For glutamate-evoked contractions of the guinea pig ileum, the methodology is as described previously (Luzzi et. al., Br. J. Pharmacol., 95, 1271-1277 (1989)). The longitudinal muscle and associated myenteric plexus are removed and placed in oxygenated modified Krebs-Henseleit solution (118 millimolar NaCl, 4.7 millimolar KCl, 2.5 millimolar CaCl, 1.2 millimolar KH2 PO4, 25 millimolar NaHCO3, and 11 millimolar glucose). Tissues are suspended on glass rods in organ baths under a resting tension of 0.5 g. After an initial depolarization with 80 millimolar potassium ion to remove possible blockade of the NMDA receptor channel complex with magnesium, twitch responses are evoked with 100 micromolar glutamate. Isometric mechanical responses are recorded. Tissues are equilibrated for at least 2 hours prior to addition of compounds.
A dose response curve for the effect of the unknown on the magnitude of the glutamate-evoked contractions is generated. Glutamate-evoked contractions are generated at 20 minute intervals, with the test compound added 5 minutes before the glutamate. The magnitude of the contraction with each dose of the unknown is expressed relative to the control, the third contraction evoked by 100 micromolar glutamate alone in the same tissue bath. The IC50 is obtained from a least-squares regression of a logit-log transformation of the data.
After the last contraction for the dose-response curve, 100 micromolar glycine is added to the bath 10 minutes after the previous addition of glutamate. […]

[4] = system: neuronal damage in the hippocampus; test: gerbil ischemic model, bilateral carotid occlusion (Test D); type: in vivo, Mongolian gerbils; conditions: 10 mg/Kg ip, pre- and post-occlusion (e.g. 45 min before and 5 min after)
From the text: as §1
When testing in vivo using the gerbil ischemic model, adult female Mongolian gerbils (50-70 g) are anesthetized with 2 to 3 % halothane. The bilateral common carotid arteries at the neck are exposed and occluded with microaneurysm clips. After 10 min (unless specified), the clips are removed and the blood flow through the carotid arteries is restored and the skin is sutured. Test compounds are administered intraperitoneally both pre- and post-occlusion, for example 45 minutes before and 5 minutes after occlusion of the carotid arteries. Sham-operated animals are treated in the same manner except that the arteries are not clamped. Gross behavioral observations along with motor activity are recorded for 2 hr on the first (24 hr) day following the occlusion. After 4 days, subjects are sacrificed (decapitation), brains are removed, fixed, sectioned and stained with hematoxylin/eosin and cresyl violet.
The brain sections are rated for neuronal damage in the hippocampus using the following rating scale:
1=slight damage (up to 25%)--restricted to CA1/subiculum border
2=moderate damage (up to 50%)--obvious damage, restricted to less than half of CA1 field
3=marked damage (up to 75%)--involving greater than half of CA1 field
4=damage extending beyond CA1 field
Sections (7 micron) are evaluated from each brain. […] The average brain damage rating score for each group is recorded, and the damage scores of the drug treated group are compared to the vehicle-treated group using Wilcoxon-Rank Sum test. […]

NMDA receptor [5] = test: hippocampal slice test (HST), antagonism of NMDA-induced evoked response (Test C); type: cell-based, rat (Sprague-Dawley); conditions: 5 μM, 0 Mg++
From the text: as §1
The characterization of a compound as a glycine antagonist in the hippocampal slice test (HST) is dependent on (1) the ability of the compound to inhibit NMDA receptor-mediated synaptic transmission in hippocampal slices and (2) the subsequent reversal of these inhibitory effects by D-serine.
The procedure for the HST is as follows. Transverse hippocampal slices are obtained from male Sprague-Dawley rats weighting 80-150 gm. […]
For the electrophysiology part of the experiments, bipolar tungsten stimulating electrodes are positioned in the stratum radiatum of the CA3 cell body region of the hippocampus and a single-barrel glass microelectrode filled with Krebs-Ringer solution is positioned in the CA1 cell body region. Low frequency stimulation is then applied to area CA3 which evokes a primary population spike (PS) recorded from CA1. […]

SMILES | reversal of the inhibition by D-serine (NMDA receptor [1]) | IC50 [2] [nM] | IC50 [3] [nM] | neuroprotection (relative to sham-operated control) [4] | also measured
NC(CCCP(=O)(O)O)C(=O)O (stereo not shown) [APV] | not reversed by D-serine |  |  |  | 
c1ccc(C2(N3CCCCC3)CCCCC2)cc1 [PCP] | not reversed by D-serine |  |  |  | 
O=c1[nH][nH]c(=O)c2c(O)c3ccc([N+](=O)[O-])cc3nc12 [Example 11, 2,3-Dihydro-10-hydroxy-7-nitropyridazino[4,5-b]quinoline-1,4-dione] |  | 8500 | 86000 | over 60% | 
C[C@]12N[C@H](Cc3ccccc31)c1ccccc12 [MK-801] | not reversed by D-serine |  |  |  | 
O=C(O)C1CN(CCCP(=O)(O)O)CCN1 (stereo not shown) [CPP] | not reversed by D-serine |  |  |  | 
O=c1[nH][nH]c(=O)c2c(O)c3c(Cl)cc(Cl)cc3nc12 [Example 4, 7,9-Dichloro-2,3-dihydro-10-hydroxypyridazino[4,5-b]quinoline-1,4-dione] |  | 80 | 2300 | Over 70% | 
O=C(O)c1cc(O)c2ccc(Cl)cc2n1 [7-chlorokynurenic acid] | reversed by D-serine |  |  |  | inhibition of the secondary PSs (NMDA receptor [1]): inhibit the secondary PSs
O=c1[nH][nH]c(=O)c2c(O)c3ccc(Cl)cc3nc12 [Example 2, 7-Chloro-2,3-dihydro-10-hydroxypyridazino[4,5-b]quinoline-1,4-dione] |  | 240 | 2100 | Over 70% | antagonism in the hippocampal slice test (inhibition of secondary population spikes) (NMDA receptor [5]): antagonist; reversal of the inhibition by D-serine (NMDA receptor [5]): reversed by D-serine
NC1CCN(O)C1=O (stereo not shown) [HA-966] | reversed by D-serine |  |  |  | inhibition of the secondary PSs (NMDA receptor [1]): inhibit the secondary PSs

— patent US5604227A, “Pyridazinedione compounds useful in treating neurological disorders” (Imperial Chemical Industries PLC, priority 1991, dated 1997)
